According to paper PMC6438780 (Xenobiotica; the fate of foreign compounds in biological …, 2018):
Read-outs that look alike come from different tables or passages of the source.

Tests used:
[1] = tested on: liver microsomes of humans; conditions: ref data sheets provided by the manufacturer, cited from earlier work
human liver microsomes [2] = assay: Oxidation of flavanone and flavone by human liver microsomes; conditions: P450s and human liver microsomes, whole assay system
CYP2A6.1 = molecular target: T1, CYP2A6.1 (Homo sapiens, UniProt P11509); conditions: 20 min, 60 µM
T1 sequence (P11509 1-494): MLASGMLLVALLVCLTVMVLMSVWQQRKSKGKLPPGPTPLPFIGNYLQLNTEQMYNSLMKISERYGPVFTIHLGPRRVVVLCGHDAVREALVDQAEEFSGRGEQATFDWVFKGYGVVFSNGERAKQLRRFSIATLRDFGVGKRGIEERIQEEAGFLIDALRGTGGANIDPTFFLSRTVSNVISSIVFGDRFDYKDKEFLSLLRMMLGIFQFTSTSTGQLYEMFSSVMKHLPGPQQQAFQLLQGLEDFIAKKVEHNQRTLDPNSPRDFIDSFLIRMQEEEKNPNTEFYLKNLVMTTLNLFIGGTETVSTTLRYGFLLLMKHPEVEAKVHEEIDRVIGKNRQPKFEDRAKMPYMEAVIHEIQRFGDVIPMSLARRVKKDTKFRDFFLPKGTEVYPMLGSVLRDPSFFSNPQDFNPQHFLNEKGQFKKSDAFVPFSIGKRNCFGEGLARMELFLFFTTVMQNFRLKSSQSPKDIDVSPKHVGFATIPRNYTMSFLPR

human liver microsomes [3] = assay: Effects of CYP-specific inhibitors; conditions: liver sample HH54 microsomes
human liver microsomes [4] = tested on: human liver microsomes

CCOc1ccc(NC(C)=O)cc1 [Phenacetin]
Phenacetin O-deethylation ([1]; human sample HG95): 0.26 nmol/mg/min
Phenacetin O-deethylation ([1]; human sample HH2): 0.51 nmol/mg/min
Phenacetin O-deethylation ([1]; human sample HH47): 0.36 nmol/mg/min
Phenacetin O-deethylation ([1]; human sample HH54): 0.44 nmol/mg/min

O=c1cc(-c2ccccc2)oc2ccccc12 [flavone]
enzymatic formation of 7OHF from flavone (human liver microsomes [2]): did not detect
rate of formation of 5OHF from flavone (CYP2A6.1): ~ 0.01 nmol/min/nmol P450
rate of formation of 6OHF from flavone (CYP2A6.1): 0.11 min⁻¹

O=c1cc(-c2ccccc2)oc2c1ccc1ccccc12 [ANF, α-naphthoflavone]
effect on formation of 7OHFva, 3´OHFva, 4´OHFva OHFvaM5, and OHFvaM6 (from flavanone) (human liver microsomes [3]; 60 µM flavanone): inhibited
effect on formation of OHFM11, diOHFM3, and diOHFM5 (from flavone) (human liver microsomes [3]; 60 µM flavone): inhibited

CC(=O)O[C@H]1C(=O)[C@@]2(C)[C@H]([C@H](OC(=O)c3ccccc3)[C@]3(O)C[C@H](OC(=O)[C@H](O)[C@@H](NC(=O)c4ccccc4)c4ccccc4)C(C)=C1C3(C)C)[C@]1(OC(C)=O)CO[C@@H]1C[C@@H]2O [Paclitaxel]
Paclitaxel 6a-hydroxylation ([1]; human sample HG95): 0.093 nmol/min/mg
Paclitaxel 6a-hydroxylation ([1]; human sample HH2): 0.13 nmol/min/mg
Paclitaxel 6a-hydroxylation ([1]; human sample HH47): 0.13 nmol/min/mg
Paclitaxel 6a-hydroxylation ([1]; human sample HH54): 0.21 nmol/min/mg

O=c1ccc2ccccc2o1 [coumarin]
effect on formation of flavone (from flavanone) (human liver microsomes [3]; 60 µM flavanone): inhibited
effect on 2´OHFva formation (from flavanone) (human liver microsomes [3]; 60 µM flavanone, low concentration of inhibitor): markedly decreased
effect on formation of OHFM6, OHFM9, and diOHFM4 (from flavone) (human liver microsomes [3]; 60 µM flavone, low concentration of inhibitor): strongly inhibited
Coumarin 7-hydroxylation ([1]; human sample HG95): 0.18 nmol/mg/min
Coumarin 7-hydroxylation ([1]; human sample HH2): no detectable
Coumarin 7-hydroxylation ([1]; human sample HH47): 0.51 nmol/mg/min
Coumarin 7-hydroxylation ([1]; human sample HH54): 2.5 nmol/mg/min

C[C@]12CC[C@H]3[C@@H](CCC4=CC(=O)CC[C@@]43C)[C@@H]1CC[C@@H]2O [Testosterone]
Testosterone 6β-hydroxylation ([1]; human sample HG95): 0.64 nmol/mg/min
Testosterone 6β-hydroxylation ([1]; human sample HH2): 0.78 nmol/mg/min
Testosterone 6β-hydroxylation ([1]; human sample HH47): 4.1 nmol/mg/min
Testosterone 6β-hydroxylation ([1]; human sample HH54): 4.9 nmol/mg/min

O=C1CC(c2ccccc2)Oc2ccccc21 (stereo not drawn) [flavanone, Flavanone]
rate of formation of flavone from flavanone (human liver microsomes [4]): 0.15 nmol/min/nmol

CC[C@@]1(c2ccccc2)NC(=O)N(C)C1=O [S-Mephenytoin]
S-Mephenytoin 4’-hydroxylation ([1]; human sample HG95): 0.015 nmol/min/mg
S-Mephenytoin N-demethylation ([1]; human sample HG95): 0.0070 nmol/min/mg
S-Mephenytoin 4’-hydroxylation ([1]; human sample HH2): 0.020 nmol/min/mg
S-Mephenytoin N-demethylation ([1]; human sample HH2): 0.010 nmol/min/mg
S-Mephenytoin 4’-hydroxylation ([1]; human sample HH47): 0.0040 nmol/min/mg
S-Mephenytoin N-demethylation ([1]; human sample HH47): 0.0065 nmol/min/mg
S-Mephenytoin 4’-hydroxylation ([1]; human sample HH54): 0.026 nmol/min/mg
S-Mephenytoin N-demethylation ([1]; human sample HH54): 0.0010 nmol/min/mg
